Test results from BigSolDB 2.1.

CC(C(=O)O)c1ccc(CC2CCCC2=O)cc1 (stereo not given)
solubility (mole fraction)
Settings | 283.15 K | 288.15 K | 293.15 K | 298.15 K | 303.15 K | 308.15 K | 313.15 K | 318.15 K | 323.15 K | 328.15 K
in 1,4-dioxane | 0.154 | 0.171 | 0.19 | 0.214 | 0.246 | 0.272 | 0.304 | 0.339 | 0.378 | 0.408
in acetonitrile | 0.0234 | 0.0296 | 0.0364 | 0.0419 | 0.059 | 0.0847 | 0.113 | 0.166 | 0.233 | 0.318
in ethanol | 0.0573 | 0.0676 | 0.0717 | 0.0943 | 0.123 | 0.154 | 0.208 | 0.252 | 0.316 | 0.389
in ethyl acetate | 0.0521 | 0.0621 | 0.0752 | 0.0848 | 0.0996 | 0.13 | 0.162 | 0.19 | 0.244 | 0.301
in ethyl orthosilicate | 0.0247 | 0.0293 | 0.0325 | 0.0365 | 0.043 | 0.0491 | 0.0565 | 0.0694 | 0.0796 | 0.0991
in isobutyl acetate | 0.0261 | 0.0314 | 0.0357 | 0.0451 | 0.0583 | 0.0688 | 0.0913 | 0.116 | 0.144 | 0.191
in isopentyl acetate | 0.0253 | 0.0306 | 0.035 | 0.0448 | 0.0561 | 0.0674 | 0.0829 | 0.109 | 0.134 | 0.165
in isopropanol | 0.0589 | 0.0747 | 0.0874 | 0.0966 | 0.128 | 0.145 | 0.189 | 0.224 | 0.277 | 0.339
in isopropyl acetate | 0.0298 | 0.0373 | 0.0443 | 0.056 | 0.0694 | 0.0819 | 0.11 | 0.134 | 0.176 | 0.229
in methanol | 0.0694 | 0.0783 | 0.0897 | 0.118 | 0.163 | 0.216 | 0.283 | 0.364 | 0.496 | 0.628
in methyl acetate | 0.0568 | 0.0659 | 0.0797 | 0.0895 | 0.11 | 0.136 | 0.17 | 0.205 | 0.255 | 0.325
in n-butyl acetate | 0.0284 | 0.0338 | 0.0418 | 0.0527 | 0.0621 | 0.0764 | 0.096 | 0.122 | 0.156 | 0.205
in n-propanol | 0.0526 | 0.0643 | 0.0792 | 0.0905 | 0.116 | 0.139 | 0.184 | 0.223 | 0.269 | 0.338
in n-propyl acetate | 0.0384 | 0.0483 | 0.0529 | 0.0631 | 0.0814 | 0.0978 | 0.127 | 0.155 | 0.199 | 0.261
